Measured values reported in patent US10106532B2, “Inhibitors of beta-hydroxylase for treatment of cancer” (MIDWESTERN UNIVERSITY, priority 2012, dated 2018).
Entries after “also recorded” stand apart in the source; their conditions may differ.

Tests used:
[1] = system: NIH-3T3 cells; assay: MTT assay (cell proliferation, metabolic activity); assay type: cell-based, mouse
Protocol: (§1) A MTT assay was performed to evaluate the effect of MO-1-1100 on cell proliferation and viability. MTT is reduced to purple formazan in living cells. FOCUS cells were used as a high ASPH expressing human HCC cell line. […] The MTT assay measures cellular metabolic activity via NAD(P)H-dependent cellular oxidoreductase enzymes. […] In order to evaluate the effect of long-term exposure of MO-1-1100, the colony formation assay (an assay of malignant potential and phenotype) in which cells were treated with inhibitor for 3 weeks was performed.

[2] = system: HepG2; assay: cell viability; assay type: cell-based, human; conditions: 5 μM
[3] = system: NIH 3T3 cells; assay: cell viability; assay type: cell-based, mouse; conditions: 5 μM, NIH 3T3 cells with no expression of ASPH
[4] = system: FOCUS HCC cells; assay: colony formation assay; assay type: cell-based, human; conditions: 5 μM
Protocol: as §1

[5] = system: FOCUS cells; assay: anchorage independent growth in soft agar; assay type: cell-based, human; conditions: 3 weeks of culture
Protocol: The effect of MO-1-1100 on anchorage independent growth in soft agar was evaluated. The ability of forming colonosphere in soft agar is considered to be a rigid test for tumorigenic potential. ASPH expression results in cells acquiring the ability to form colonospheres in soft agar. […] In order to evaluate the effect of ASPH inhibitor for anchorage independent colony formation, FOCUS cells were incubated in soft agar with or without this ASPH enzymatic inhibitor. After 3 weeks incubation, MO-1-1100 reduced colonosphere formation of FOCUS cells (FIG. 9A). […] This assay is a standard method to monitor malignant growth that reflects the ability to form tumors that grow aggressively in vivo.

[6] = system: FOCUS cells; assay: directional motility, Boyden chamber-type culture inserts; assay type: cell-based, human; conditions: 5 μM pretreatment for 24 hours, migration 30 min
Protocol: The β-hydroxylase activity is required for ASPH to mediate its effects on cell motility. Directional motility was measured using Boyden chamber-type culture inserts equipped with porous membranes. FOCUS cells were pretreated with 5 μM of MO-1-1100 and MO-1-500 β-hydroxylase inhibitor for 24 hours, and then placed into the upper chamber. Migration was allowed to proceed for 30 min. ATPLite was used to quantify viable cell density. The cells in the upper well and upper surface of membrane reflects the number of non-migrating cells, luminescence measured at the bottom surface of the membrane reflects the number of migrating and non-adherent cells and luminescence measured in the bottom well was reflect migrating and non-adherent cells. […] Cell invasiveness was assessed by invasion assay using matrigel coated membrane, in which cells were allowed to proceed for 6 hours; those found adhered on the bottom surface of membrane were regarded as invading cells.

[7] = system: human HCC cell line FOCUS; assay: subcutaneous xenograft of human hepatocellular carcinoma; assay type: in vivo, mouse; conditions: 20 mg/kg per day
Protocol: The human HCC cell line FOCUS is known to be a highly aggressive tumor forming cell line in vivo. To investigate in vivo anti-tumor efficacy of the ASPH inhibitor, MO-1-1100 at 20 mg/kg per day was administered on 5 consecutive days for 2 weeks and every other day thereafter. […] Such findings indicate that any ASPH expressing human tumor are responsive to these specific β-hydroxylase inhibitors. These ASPH inhibitor compounds represent a class of anti-tumor agents that has substantial anti-tumor activity against a large number of solid human tumors known to have a dismal prognosis.

NC1=C(OS(=O)(=O)Cc2ccccc2)C(=O)C(c2ccc(Cl)cc2)O1 (racemic) [MO-1-1100]
specificity for the β-hydroxylase activity of ASPH ([1]; FOCUS (express ASPH) versus NIH-3T3 (do not express ASPH)): highly specific; also recorded: more highly specific | OD value of MTT ([1]; NIH-3T3 cells not expressing ASPH): no effect; also recorded: resistant | cell viability, inhibition rate [2]: 59% | decreased cell viability [3]: not | colony formation [4]: reduced colony formation; also recorded: strikingly inhibited | colony formation, inhibition rate ([4]; 3 weeks): 36.8% | number and size of colonies in soft agar [5]: dose-dependent and highly significant reduction; also recorded: reduces | cell migration / motility [6]: significantly inhibited | migrating and adherent cells [6]: significantly reduced | population of non-adherent cells [6]: unchanged | total migrated cells [6]: reduced | signs of wasting or other adverse effects relative to control mice [7]: None of the MO-1-1100 treated mice showed signs | tolerability [7]: tolerated well | HCC subcutaneous xenograft growth ([7]; 5 consecutive days for 2 weeks and every other day thereafter): significantly reduced; also recorded: strikingly reduces | tumor volumes reduced, average, compared to control mice ([7]; day 12 following treatment): 31.7%
